Target: p38α MAP kinase (Homo sapiens, UniProt Q16539)
Test: Assay to determine the inhibition of p38α MAP kinase (phosphorylation of ATF-2, IC50-values)
Type: biochemical
Details: ATF-2 coated microtiter plates, 10 ng activated p38α, 100 μM ATP, 1 h at 37° C.; read-out: IC50, inhibition of the phosphorylation of ATF-2 by p38a MAP kinase
Description: Assay to determine the inhibition of p38α MAP kinase (IC50-values)
Microtiter plates were coated with the p38 MAP kinase substrate ATF-2 by incubating 50 μl of 20 μg/ml ATF-2 for one hour at 37° C. After the plates were washed three times with water, 50 μl of kinase mixture (=50 mM Tris-HCl, 10 mM MgCl2, 10 mM β-glycerol phosphate, 10 μg/ml BSA, 1 mM DTT, 100 μM ATP, 100 μM […], 10 ng activated p38α) without an with increasing inhibitor concentrations were added into the wells and incubated for one hour at 37° C. The plates were washed three times with water and incubated with an anti-phospho-ATF-2 antibody for one hour at 37°. Thereafter, the plates were again washed three times with water and incubated with a goat, alkaline phosphatase-labeled anti-rabbit IgG, for one hour at 37° C. The plates were washed and incubated with 100 μl of a solution containing the phosphatase substrate 4-nitrophenolphosphate (3 mM 4-NPP, 50 mM NaHCO3, 50 mM MgCl2) for 1.5 hours at 37° C. Formation of 4-nitrophenolate was measured at 405 nm using a microtiter plate reader. Based on the inhibitor-concentration/response curves, IC50-values were determined.

Chain of p38α MAP kinase (Q16539 whole entry): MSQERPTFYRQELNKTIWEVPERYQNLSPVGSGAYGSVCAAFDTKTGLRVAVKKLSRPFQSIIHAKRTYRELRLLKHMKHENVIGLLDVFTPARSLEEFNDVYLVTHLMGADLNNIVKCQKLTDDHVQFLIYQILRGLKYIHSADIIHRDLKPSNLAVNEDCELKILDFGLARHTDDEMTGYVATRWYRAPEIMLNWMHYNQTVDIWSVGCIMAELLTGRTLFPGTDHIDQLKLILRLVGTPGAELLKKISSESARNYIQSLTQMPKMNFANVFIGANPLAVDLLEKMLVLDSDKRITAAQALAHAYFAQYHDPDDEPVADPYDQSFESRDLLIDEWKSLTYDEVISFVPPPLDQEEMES

| Structure (SMILES) | IC50 [µM] |
| --- | --- |
| CSc1nc(-c2ccc(F)cc2)c(-c2ccnc(NC3CC(C)(C)NC(C)(C)C3)c2)n1C [Example 3] | 1 to 10 |
| COCCn1c([S+](C)[O-])nc(-c2ccc(F)cc2)c1-c1ccnc(NC2CC(C)(C)NC(C)(C)C2)c1 (centres unmarked) [Example 10] | > 10 |
| CC(O)CNc1cc(-c2c(-c3ccc(F)cc3)nc([S+](C)[O-])n2C)ccn1 (centres unmarked) [Example 20, 1-{4-[5-(4-Fluoro-phenyl)-2-methanesulfinyl-3-methyl-3H-imidazol-4-yl]-pyridin-2-ylamino}-propan-2-ol] | > 10 |
| COCCn1c([S+](C)[O-])nc(-c2ccc(F)cc2)c1-c1ccnc(NC2CCN(Cc3ccccc3)CC2)c1 (centres unmarked) [Example 12, (1-Benzyl-piperidin-4-yl)-{4-[5-(4-fluoro-phenyl)-2-methanesulfinyl-3-(2-methoxy-ethyl)-3H-imidazol-4-yl]-pyridin-2-yl}-amine] | 1 to 10 |
| CCN1CCCC1CNc1cc(-c2c(-c3ccc(F)cc3)nc([S+](C)[O-])n2C)ccn1 (centres unmarked) [Example 7, (1-Ethyl-pyrrolidin-2-ylmethyl)-{4-[5-(4-fluoro-phenyl)-2-methanesulfinyl-3-methyl-3H-imidazol-4-yl]-pyridin-2-yl}-amine] | > 10 |
| COCCn1c(SC)nc(-c2ccc(F)cc2)c1-c1ccnc(NC2CCN(Cc3ccccc3)CC2)c1 [Example 6, (1-Benzyl-piperidin-4-yl)-{4-[5-(4-fluoro-phenyl)-3-(2-methoxy-ethyl)-2-methylsulfanyl-3H-imidazol-4-yl]-pyridin-2-yl}-amine] | 1 to 10 |
| CSc1nc(-c2ccc(F)cc2)c(-c2ccnc(NC3CCCCC3O)c2)n1C (centres unmarked) [Example 17, 2-{4-[5-(4-Fluoro-phenyl)-3-methyl-2-methylsulfanyl-3H-imidazol-4-yl]-pyridin-2-ylamino}-cyclohexanol] | 1 to 10 |
| COCCn1c([S+](C)[O-])nc(-c2ccc(F)cc2)c1-c1ccnc(NCC(C)O)c1 (centres unmarked) [Example 21, 1-{4-[5-(4-Fluoro-phenyl)-2-methanesulfinyl-3-(2-methoxy-ethyl)-3H-imidazol-4-yl]-pyridin-2-ylamino}-propan-2-ol] | 1 to 10 |
| CSc1nc(-c2ccc(F)cc2)c(-c2ccnc(NC3CCC(=O)CC3)c2)n1C [Example 27, 4-{4-[5-(4-Fluoro-phenyl)-3-methyl-2-methylsulfanyl-3H-imidazol-4-yl]-pyridin-2-ylamino}-cyclohexanone] | 1 to 10 |
| CSc1nc(-c2ccc(F)cc2)c(-c2ccnc(NCC(C)O)c2)n1C (centres unmarked) [Example 13, 1-{4-[5-(4-Fluoro-phenyl)-3-methyl-2-methylsulfanyl-3H-imidazol-4-yl]-pyridin-2-ylamino}-propan-2-ol] | < 1 |
| Cn1c([S+](C)[O-])nc(-c2ccc(F)cc2)c1-c1ccnc(NC2CCCCC2O)c1 (centres unmarked) [Example 24, 2-{4-[5-(4-Fluoro-phenyl)-2-methanesulfinyl-3-methyl-3H-imidazol-4-yl]pyridin-2-ylamino}-cyclohexanol] | 1 to 10 |
| COCCn1c(SC)nc(-c2ccc(F)cc2)c1-c1ccnc(NCC(C)O)c1 (centres unmarked) [Example 14, 1-{4-[5-(4-Fluoro-phenyl)-3-(2-methoxy-ethyl)-2-methylsulfanyl-3H-imidazol-4-yl]-pyridin-2-ylamino}-propan-2-ol] | < 1 |
| CCN1CCCC1CNc1cc(-c2c(-c3ccc(F)cc3)nc(SC)n2C)ccn1 (centres unmarked) [Example 1, (1-Ethyl-pyrrolidin-2-ylmethyl)-{4-[5-(4-fluoro-phenyl)-3-methyl-2-methylsulfanyl-3H-imidazol-4-yl]-pyridin-2-yl}-amine] | > 10 |
| COCCn1c(SC)nc(-c2ccc(F)cc2)c1-c1ccnc(NC2CC(C)(C)NC(C)(C)C2)c1 [Example 4, {4-[5-(4-Fluoro-phenyl)-3-(2-methoxy-ethyl)-2-methylsulfanyl-3H-imidazol-4-yl]-pyridin-2-yl}-(2,2,6,6-tetramethyl-piperidin-4-yl)-amine] | < 1 |
| COCCn1c(SC)nc(-c2ccc(F)cc2)c1-c1ccnc(NC(=O)C2CCOCC2)c1 [Example 32, Tetrahydro-pyran-4-carboxylic acid {4-[5-(4-fluoro-phenyl)-3-(2-methoxy-ethyl)-2-methylsulfanyl-3H-imidazol-4-yl]-pyridin-2-yl}-amide] | < 1 |
| COCCn1c(S(C)(=O)=O)nc(-c2ccc(F)cc2)c1-c1ccnc(NC2CCCCC2O)c1 (centres unmarked) [35 (4)] | 1 to 10 |

| Structure (SMILES) | IC50 [µM] |
| --- | --- |
| COCCn1c(SC)nc(-c2ccc(F)cc2)c1-c1ccnc(NC2CCCCC2O)c1 (centres unmarked) [Example 35 (2)] | < 1 |
| CSc1nc(-c2ccc(F)cc2)c(-c2ccnc(NC3CCCCC3=O)c2)n1C (centres unmarked) [Example 28, 2-{4-[5-(4-Fluoro-phenyl)-3-methyl-2-methylsulfanyl-3H-imidazol-4-yl]-pyridin-2-ylamino}-cyclohexanone] | < 1 |
| CSc1nc(-c2ccc(F)cc2)c(-c2ccnc(NC3CCN(Cc4ccccc4)CC3)c2)n1C [Example 5, (1-Benzyl-piperidin-4-yl)-{4-[5-(4-fluoro-phenyl)-3-methyl-2-methylsulfanyl-3H-imidazol-4-yl]-pyridin-2-yl}-amine] | 1 to 10 |
| COCCn1c([S+](C)[O-])nc(-c2ccc(F)cc2)c1-c1ccnc(NC(=O)C2CCOCC2)c1 (centres unmarked) [Example 33, Tetrahydro-pyran-4-carboxylic acid {4-[5-(4-fluoro-phenyl)-2-methanesulfinyl-3-(2-methoxy-ethyl)-3H-imidazol-4-yl]-pyridin-2-yl}-amide] | < 1 |
| Cn1c([S+](C)[O-])nc(-c2ccc(F)cc2)c1-c1ccnc(NC2CCC(O)CC2)c1 (centres unmarked) [Example 22, 4-{4-[5-(4-Fluoro-phenyl)-2-methanesulfinyl-3-methyl-3H-imidazol-4-yl]-Pyridin-2-ylamino}-cyclohexanol] | < 1 |
| COCCn1c(SC)nc(-c2ccc(F)cc2)c1-c1ccnc(NCC(C)=O)c1 [Example 26, 1-{4-[5-(4-Fluoro-phenyl)-3-(2-methoxy-ethyl)-2-methylsulfanyl-3H-imidazol-4-yl]-pyridin-2-ylamino}-propan-2-one] | 1 to 10 |
| Cn1c([S+](C)[O-])nc(-c2ccc(F)cc2)c1-c1ccnc(NC2CC(C)(C)NC(C)(C)C2)c1 (centres unmarked) [Example 9, {4-[5-(4-Fluoro-phenyl)-2-methanesulfinyl-3-methyl-3H-imidazol-4-yl]-pyridin-2-yl}-(2,2,6,6-tetramethyl-piperidin-4-yl)-amine] | > 10 |
| COCCn1c([S+](C)[O-])nc(-c2ccc(F)cc2)c1-c1ccnc(NC2CCC(O)CC2)c1 (centres unmarked) [Example 23, 4-{4-[5-(4-Fluoro-phenyl)-2-methanesulfinyl-3-(2-methoxy-ethyl)-3H-imidazol-4-yl]-pyridin-2-ylamino}-cyclohexanol] | < 1 |
| COCCn1c(SC)nc(-c2ccc(F)cc2)c1-c1ccnc(NC2CCC(O)CC2)c1 (centres unmarked) [Example 16, 4-{4-[5-(4-Fluoro-phenyl)-3-(2-methoxy-ethyl)-2-methylsulfanyl-3H-imidazol-4-yl]-pyridin-2-ylamino}-cyclohexanol] | < 1 |
| CSc1nc(-c2ccc(F)cc2)c(-c2ccnc(NC3CCC(O)CC3)c2)n1C (centres unmarked) [Example 15, 4-{4-[5-(4-Fluoro-phenyl)-3-methyl-2-methylsulfanyl-3H-imidazol-4-yl]-pyridin-2-ylamino}-cyclohexanol] | < 1 |
| COCCn1c(SC)nc(-c2ccc(F)cc2)c1-c1ccnc(NCC2CCCCC2O)c1 (centres unmarked) [35 (1)] | < 1 |
| Cn1c([S+](C)[O-])nc(-c2ccc(F)cc2)c1-c1ccnc(NC2CCN(Cc3ccccc3)CC2)c1 (centres unmarked) [Example 11, (1-Benzyl-piperidin-4-yl)-{4-[5-(4-fluoro-phenyl)-2-methanesulfinyl-3-methyl-3H-imidazol-4-yl]-pyridin-2-yl}-amine] | > 10 |
| CSc1nc(-c2ccc(F)cc2)c(-c2ccnc(NC3CCCCC3O)c2)n1C (centres unmarked) [Example 18, 2-{4-[5-(4-Fluoro-phenyl)-3-methyl-2-methylsulfanyl-3H-imidazol-4-yl]-pyridin-2-ylamino}-cyclohexanol] | < 1 |
| COCCn1c([S+](C)[O-])nc(-c2ccc(F)cc2)c1-c1ccnc(NC2CCCCC2O)c1 (centres unmarked) [Example 25, 2-{4-[5-(4-Fluoro-phenyl)-2-methanesulfinyl-3-(2-methoxy-ethyl)-3H-imidazol-4-yl]-pyridin-2-ylamino}-cyclohexanol] | 1 to 10 |
| COCCn1c(SC)nc(-c2ccc(F)cc2)c1-c1ccnc(NC2CCCCC2O)c1 (centres unmarked) [Example 19, 2-{4-[5-(4-Fluoro-phenyl)-3-(2-methoxy-ethyl)-2-methylsulfanyl-3H-imidazol-4-yl]-pyridin-2-ylamino}-cyclohexanol] | 1 to 10 |
| CCN1CCCC1CNc1cc(-c2c(-c3ccc(F)cc3)nc(SC)n2CCOC)ccn1 (centres unmarked) [Example 2] | < 1 |

Reference: patent US20100069436A1, “IMIDAZOLE COMPOUNDS HAVING AN ANTIINFLAMMATORY EFFECT” (Merckle, priority 2006, published 2010)
